From ChEMBL document CHEMBL1201862, “PubChem BioAssay data set” (2004)
Active and inactive are the calls of the source.

Experiments:
Assay type in all cases: functional
[1] = molecular target: Small ubiquitin-related modifier 1 (Homo sapiens, UniProt P63165); assay: SUMO1 protein interaction blockers, potency – biochemical, fluorescence polarization, uHTS hits, dose response (AID 624382); details: read-out: IC50_Mean
[2] = molecular target: T1, Small ubiquitin-related modifier 2 (Homo sapiens, UniProt P61956); assay: disruption of SUMO2 interaction with SIM peptide – biochemical, fluorescence polarization, uHTS hits, selectivity assay for SUMO1 interaction inhibitor project, dose response (AID 624385); details: read-out: IC50_Mean
T1 sequence (P61956 whole entry): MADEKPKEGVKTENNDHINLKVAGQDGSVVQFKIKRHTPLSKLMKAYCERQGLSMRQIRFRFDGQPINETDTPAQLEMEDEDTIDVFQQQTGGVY

[3] = molecular target: T1, Small ubiquitin-related modifier 2; assay: SUMO2 binding disruption by SUMO1 hits – biochemical, FRET, human SUMO2, uHTS hits, selectivity assay for SUMO1 interaction inhibitor project, dose response (AID 624384); details: read-out: IC50_Mean
[4] = system: INS1; assay: INS-1E survival protection against cytokine death – cell-based, luminescence, retest, dose response (AID 449756); details: Rattus norvegicus;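 further: cell death triggered by IL-1 beta plus TNF-alpha plus IFN-gamma mixture; protective hits raise ATP signal compared with cytokine alone wells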
[5] = molecular target: T2, Protein RecA (Mycobacterium tuberculosis, UniProt P9WHJ3); assay: Fluorescence Cell-Free Homogeneous Dose Retest to Identify Inhibitors of RecA-Intein Splicing Activity. [Related pubchem assays (depositor defined):AID2097, AID2223, AID489010, AID492950]
T2 sequence (P9WHJ3 whole entry): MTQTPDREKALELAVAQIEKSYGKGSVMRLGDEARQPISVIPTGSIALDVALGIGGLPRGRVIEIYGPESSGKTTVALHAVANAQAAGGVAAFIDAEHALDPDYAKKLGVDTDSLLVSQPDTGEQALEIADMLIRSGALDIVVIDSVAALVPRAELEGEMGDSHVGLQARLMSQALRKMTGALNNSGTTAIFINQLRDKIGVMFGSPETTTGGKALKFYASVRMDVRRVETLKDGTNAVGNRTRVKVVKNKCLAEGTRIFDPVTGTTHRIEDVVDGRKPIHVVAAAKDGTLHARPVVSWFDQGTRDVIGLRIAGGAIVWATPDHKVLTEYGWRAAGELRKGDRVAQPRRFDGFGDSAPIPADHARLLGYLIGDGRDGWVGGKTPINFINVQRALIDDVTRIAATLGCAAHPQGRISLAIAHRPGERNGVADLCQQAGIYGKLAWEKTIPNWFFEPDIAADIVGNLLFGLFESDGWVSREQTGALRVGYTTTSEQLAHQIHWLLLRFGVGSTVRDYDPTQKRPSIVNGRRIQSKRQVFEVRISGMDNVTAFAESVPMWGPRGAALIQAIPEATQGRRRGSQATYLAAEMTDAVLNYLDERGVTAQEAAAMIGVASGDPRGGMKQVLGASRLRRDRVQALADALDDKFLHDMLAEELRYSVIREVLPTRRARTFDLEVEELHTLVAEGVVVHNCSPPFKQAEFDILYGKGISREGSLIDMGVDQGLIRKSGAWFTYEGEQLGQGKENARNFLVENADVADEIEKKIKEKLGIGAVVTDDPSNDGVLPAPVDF

[6] = molecular target: T3, Tyrosine-protein phosphatase non-receptor type 22 (Homo sapiens, UniProt Q9Y2R2);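 further: confirmatory dose-response retest of primary uHTS hits for inhibition of LYP phosphatase, measured by a fluorescence intensity read-out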
T3 sequence (Q9Y2R2 whole entry): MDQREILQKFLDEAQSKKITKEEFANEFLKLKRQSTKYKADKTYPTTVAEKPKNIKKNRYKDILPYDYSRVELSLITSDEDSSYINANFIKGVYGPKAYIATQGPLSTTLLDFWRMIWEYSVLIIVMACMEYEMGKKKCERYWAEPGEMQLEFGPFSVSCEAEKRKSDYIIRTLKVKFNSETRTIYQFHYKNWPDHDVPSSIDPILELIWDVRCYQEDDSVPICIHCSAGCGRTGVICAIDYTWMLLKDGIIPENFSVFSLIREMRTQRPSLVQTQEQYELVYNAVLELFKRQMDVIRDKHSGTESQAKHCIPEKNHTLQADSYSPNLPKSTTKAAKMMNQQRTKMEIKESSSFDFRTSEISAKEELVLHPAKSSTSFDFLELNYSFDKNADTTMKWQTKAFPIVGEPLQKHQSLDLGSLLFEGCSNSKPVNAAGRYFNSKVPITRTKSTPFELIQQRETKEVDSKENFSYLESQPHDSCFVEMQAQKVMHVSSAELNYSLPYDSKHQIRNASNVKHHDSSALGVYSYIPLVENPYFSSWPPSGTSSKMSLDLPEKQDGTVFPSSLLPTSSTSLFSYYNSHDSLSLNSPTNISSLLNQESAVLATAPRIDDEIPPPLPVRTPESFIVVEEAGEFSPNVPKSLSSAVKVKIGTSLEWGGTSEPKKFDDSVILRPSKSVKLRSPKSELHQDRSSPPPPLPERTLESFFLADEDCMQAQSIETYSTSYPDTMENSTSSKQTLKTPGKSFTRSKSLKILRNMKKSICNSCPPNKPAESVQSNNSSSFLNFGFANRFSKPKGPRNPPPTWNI

[7] = molecular target: T4, High affinity choline transporter 1 (Homo sapiens, UniProt Q9GZV3); assay: human choline transporter blockers, potency – cell-based, 5-point CRC, membrane potential dye, dose response (AID 504840)
T4 sequence (Q9GZV3 whole entry): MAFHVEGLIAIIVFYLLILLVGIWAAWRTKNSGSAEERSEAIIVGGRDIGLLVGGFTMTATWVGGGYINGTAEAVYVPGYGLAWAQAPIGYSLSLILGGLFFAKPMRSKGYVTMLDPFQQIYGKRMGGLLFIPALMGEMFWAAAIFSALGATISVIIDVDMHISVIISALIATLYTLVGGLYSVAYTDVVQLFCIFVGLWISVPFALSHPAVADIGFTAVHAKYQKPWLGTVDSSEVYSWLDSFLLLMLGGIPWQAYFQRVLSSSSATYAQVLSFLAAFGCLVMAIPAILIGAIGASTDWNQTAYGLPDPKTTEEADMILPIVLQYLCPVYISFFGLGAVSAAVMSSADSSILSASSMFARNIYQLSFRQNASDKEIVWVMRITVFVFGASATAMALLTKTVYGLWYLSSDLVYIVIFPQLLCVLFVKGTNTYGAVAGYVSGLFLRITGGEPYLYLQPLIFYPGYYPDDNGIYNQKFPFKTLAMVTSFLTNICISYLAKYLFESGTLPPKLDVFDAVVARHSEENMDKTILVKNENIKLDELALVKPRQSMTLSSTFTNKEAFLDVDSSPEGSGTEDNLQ

Small ubiquitin-related modifier 1, sequence (P63165 whole entry): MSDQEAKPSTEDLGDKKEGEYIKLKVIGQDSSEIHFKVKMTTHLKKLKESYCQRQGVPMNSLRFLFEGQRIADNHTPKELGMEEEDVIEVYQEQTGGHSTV

In the case of `CSc1ccc(C=NNc2ccc(S(=O)(=O)Nc3ccccc3C(=O)O)cc2[N+](=O)[O-])cc1`, the IC50 [1] is reported as 3.23 µM (active), the IC50 [2] is reported as 2.38 µM (active) and the IC50 [3] is reported as 53.1 µM (inactive).
In the case of `O=C1C(Cl)=C(NCCN2CCCCC2)C(=O)c2ccccc21`, the AC50 [4] is reported as 4.41 µM (active) and the EC50 [5] is reported as 7.31 µM (active).
In the case of `Cc1oc2c(c1C(=O)c1ccccc1)C(=O)C(=O)c1ccccc1-2`, the AC50 [4] is reported as 2.71 µM (active).
For `O=C1CCCC2=C1C1(O)C(=O)c3ccccc3C1(O)O2` (stereo not drawn), the EC50 [5] was 11.5 µM (active).
In the case of `Nc1ccc2nc3c(O)nc(S)nc3nc2c1`, the IC50 [1] is reported as 5.69 µM (active), the IC50 [2] is reported as 55.2 µM (inactive) and the IC50 [3] is reported as 0.584 µM (active). For the same compound, the IC50 [6] was > 79.4 µM (inactive).
With `CC(/C=C1\SC(=S)N(NS(=O)(=O)c2ccccc2)C1=O)=C\c1ccccc1` the IC50 [7] was 9.12 µM (active).
`O=C(O)COc1ccc(/C=N/NC(=O)c2ccc(-c3csc(Nc4ccc(Cl)cc4)n3)cc2)cc1` was tested, and the IC50 [6] was < 1.24 µM (active).
